Source: patent publication US20130165520A1, “Hybrid Molecule Having Mixed Retinoic Acid Receptor Agonism and Histone Deacetylase Inhibitory Properties” (priority 2010, published 2013)

Assays:
[1] = test system: NCI-H23; details: NCI-H23 (Non-Small cell lung cancer); 48 h
[2] = test system: DU-145; details: DU-145 (Prostate); 48 h
[3] = test system: HL-60(TB); experiment: cells; details: Homo sapiens, HL-60, 48 h
[4] = test system: A549/ATCC; experiment: cells; details: Homo sapiens, A549, 48 h
[5] = test system: SK-OV-3; experiment: cells; details: Homo sapiens, SK-OV-3, 48 h
[6] = test system: 786-0; details: 786-0 (Renal); 48 h
[7] = test system: SK-MEL-2; experiment: cells; details: Homo sapiens, SK-MEL-2, 48 h
[8] = test system: HCT-15; details: HCT-15 (Colon); 48 h
[9] = test system: NCI-H522; details: NCI-H522 (Non-Small cell lung cancer); 48 h
[10] = test system: HT29; details: HT29 (Colon); 48 h
[11] = test system: OVCAR-4; experiment: cells; details: Homo sapiens, OVCAR-4, 48 h
[12] = test system: SF-295; details: SF-295 (CNS); 48 h
[13] = test system: UACC-257; experiment: cells; details: Homo sapiens, UACC-257, 48 h
[14] = test system: SF-268; experiment: cells; details: Homo sapiens, SF-268, 48 h
[15] = test system: ACHN; details: ACHN (Renal); 48 h
[16] = test system: SW-620; experiment: cells; details: Homo sapiens, SW-620, 48 h
[17] = test system: UO-31; experiment: cells; details: Homo sapiens, UO-31, 48 h
[18] = test system: HOP-62; details: HOP-62 (Non-Small cell lung cancer); 48 h
[19] = test system: EKVX; experiment: cells; details: Homo sapiens, 48 h
[20] = test system: TK-10; experiment: cells; details: Homo sapiens, TK-10, 48 h
[21] = target: purified human HDAC6 (Homo sapiens, UniProt Q9UBN7); experiment: Standard fluorescence HDAC assay; assay type: biochemical; details: purified human enzyme, read-out: IC50 against HDAC6
Chain of purified human HDAC6 (Q9UBN7 whole entry): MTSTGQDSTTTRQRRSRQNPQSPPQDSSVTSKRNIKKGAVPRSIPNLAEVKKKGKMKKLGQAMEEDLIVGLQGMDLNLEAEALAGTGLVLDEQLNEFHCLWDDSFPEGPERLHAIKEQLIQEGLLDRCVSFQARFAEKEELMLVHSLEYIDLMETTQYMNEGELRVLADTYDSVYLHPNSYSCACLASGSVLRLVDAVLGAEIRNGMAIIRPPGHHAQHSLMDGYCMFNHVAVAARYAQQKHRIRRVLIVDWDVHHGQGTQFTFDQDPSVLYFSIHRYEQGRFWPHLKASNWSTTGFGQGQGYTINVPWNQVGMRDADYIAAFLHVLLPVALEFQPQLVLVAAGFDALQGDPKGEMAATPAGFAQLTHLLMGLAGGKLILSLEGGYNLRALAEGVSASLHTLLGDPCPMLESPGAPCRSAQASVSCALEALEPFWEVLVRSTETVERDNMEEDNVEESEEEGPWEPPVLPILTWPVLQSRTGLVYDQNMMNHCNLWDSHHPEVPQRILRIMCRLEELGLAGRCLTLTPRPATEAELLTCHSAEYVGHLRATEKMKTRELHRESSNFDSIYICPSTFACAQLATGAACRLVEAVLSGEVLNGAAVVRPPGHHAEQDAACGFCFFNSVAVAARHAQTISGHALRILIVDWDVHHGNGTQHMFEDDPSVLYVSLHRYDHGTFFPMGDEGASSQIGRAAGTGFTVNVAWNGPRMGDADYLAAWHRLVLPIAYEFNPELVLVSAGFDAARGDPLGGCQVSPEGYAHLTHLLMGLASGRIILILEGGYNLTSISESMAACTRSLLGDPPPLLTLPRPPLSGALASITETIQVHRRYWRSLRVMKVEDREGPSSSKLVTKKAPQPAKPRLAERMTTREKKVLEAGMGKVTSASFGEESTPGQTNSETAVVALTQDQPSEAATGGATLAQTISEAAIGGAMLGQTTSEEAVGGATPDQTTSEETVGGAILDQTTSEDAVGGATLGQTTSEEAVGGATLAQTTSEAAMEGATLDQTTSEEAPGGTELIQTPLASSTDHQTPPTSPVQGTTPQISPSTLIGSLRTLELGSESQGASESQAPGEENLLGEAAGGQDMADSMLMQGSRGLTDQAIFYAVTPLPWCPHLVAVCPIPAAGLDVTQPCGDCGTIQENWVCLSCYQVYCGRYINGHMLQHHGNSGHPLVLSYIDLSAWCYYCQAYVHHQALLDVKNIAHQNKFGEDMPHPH

[22] = test system: RPMI-8226; experiment: cells; details: Homo sapiens, RPMI-8226, 48 h
[23] = test system: HCT-15; experiment: cells; details: Homo sapiens, HCT-15, 48 h
[24] = test system: CAKI-1; details: CAKI-1 (Renal); 48 h
[25] = test system: A498; experiment: cells; details: Homo sapiens, A498, 48 h
[26] = test system: HOP-62; experiment: cells; details: Homo sapiens, HOP-62, 48 h
[27] = test system: SK-MEL-28; experiment: cells; details: Homo sapiens, SK-MEL-28, 48 h
[28] = test system: HS578T; details: HS578T (Breast); 48 h
[29] = test system: K-562; experiment: cells; details: Homo sapiens, K562, 48 h
[30] = test system: KM12; details: KM12 (Colon); 48 h
[31] = test system: RXF393; details: RXF393 (Renal); 48 h
[32] = test system: SF-539; details: SF-539 (CNS); 48 h
[33] = test system: PC-3; experiment: cells; details: Homo sapiens, PC-3, 48 h
[34] = test system: SN12C; details: SN12C (Renal); 48 h
[35] = test system: HS578T; experiment: cells; details: Homo sapiens, Hs-578T, 48 h
[36] = test system: BT-20; experiment: Cell growth measurement; assay type: cell-based; details: BT-20 (ER-negative, HER2-negative, RA-insensitive)
[37] = test system: MDA-MB-435; experiment: cells; details: Homo sapiens, MDA-MB-435, 48 h

`CC1(C)CCC(C)(C)c2cc(-c3ccc4cc(C(=O)NO)ccc4c3)ccc21` [hybrid 3] was tested, and the TGI [1] was 2430 nM, the TGI [2] was 1900 nM and the GI50 [3] was 353 nM. For the same compound, the CC50 ([3]; read-out: LC50) was 7660 nM, the GI50 [4] was 473 nM and the CC50 ([4]; read-out: LC50) was 7800 nM. It also gave a GI50 [5] of 1540 nM, a CC50 ([5]; read-out: LC50) of 34800 nM and a TGI [6] of 2370 nM. It also gave a GI50 [7] of 2420 nM, a CC50 ([7]; read-out: LC50) of 33600 nM and a TGI [8] of 2030 nM. The TGI [9] was 3590 nM, the TGI [10] was 2340 nM and the GI50 [11] was 533 nM. It also gave a CC50 ([11]; read-out: LC50) of 29100 nM, a TGI [12] of 1770 nM and a GI50 [13] of 1980 nM. The CC50 ([13]; read-out: LC50) was 29700 nM, the GI50 [14] was 533 nM and the CC50 ([14]; read-out: LC50) was 5050 nM. The TGI [15] was 1490 nM, the GI50 [16] was 626 nM and the CC50 ([16]; read-out: LC50) was 4850 nM. For the same compound, the GI50 [17] was 404 nM, the CC50 ([17]; read-out: LC50) was 4530 nM and the TGI [18] was 2190 nM. It also gave a GI50 [19] of 686 nM, a CC50 ([19]; read-out: LC50) of 18400 nM and a GI50 [20] of 1100 nM. For the same compound, the CC50 ([20]; read-out: LC50) was 25000 nM, the IC50 [21] was 148 nM and the GI50 [22] was 689 nM. For the same compound, the CC50 ([22]; read-out: LC50) was over 100000 nM, the GI50 [23] was 381 nM and the CC50 ([23]; read-out: LC50) was 9380 nM. For the same compound, the TGI [24] was 1030 nM, the GI50 [25] was 1660 nM and the CC50 ([25]; read-out: LC50) was 8710 nM. It also gave a GI50 [26] of 616 nM, a CC50 ([26]; read-out: LC50) of 6180 nM and a GI50 [27] of 1810 nM. It also gave a CC50 ([27]; read-out: LC50) of 21700 nM, a TGI [28] of 11800 nM and a GI50 [29] of 399 nM. The CC50 ([29]; read-out: LC50) was 5510 nM, the TGI [30] was 1880 nM and the TGI [31] was 2820 nM. The TGI [32] was 7260 nM, the GI50 [33] was 1140 nM and the CC50 ([33]; read-out: LC50) was 21500 nM. It also gave a TGI [34] of 2370 nM, a GI50 [35] of 3020 nM and a CC50 ([35]; read-out: LC50) of 64800 nM. The “effect on cell growth” value [36] was “active”, the GI50 [37] was 879 nM and the CC50 ([37]; read-out: LC50) was 6800 nM.
